Data taken from ChEMBL document CHEMBL3351686, “Facile and diastereoselective synthesis of 3,2'-spiropyrrolidine-oxindoles derivatives, their molecular docking and antiproliferative activities” (2015).
Converted amounts (≈) assume the structure as drawn.

What was measured:
Salmonella typhimurium [1] = assay: Antibacterial activity against Salmonella typhimurium MTCC 1251 assessed as zone of inhibition at 1 mg/disc after 24 hrs by disc diffusion method; assay type: functional, Salmonella enterica subsp. enterica serovar Typhimurium
Klebsiella pneumoniae [2] = assay: Antibacterial activity against Klebsiella pneumoniae MTCC 109 assessed as zone of inhibition at 1 mg/disc after 24 hrs by disc diffusion method; assay type: functional
Proteus vulgaris [3] = assay: Antibacterial activity against Proteus vulgaris MTCC 1771 assessed as zone of inhibition at 1 mg/disc after 24 hrs by disc diffusion method; assay type: functional
Shigella flexneri [4] = assay: Antibacterial activity against Shigella flexneri MTCC 1457 assessed as zone of inhibition at 1 mg/disc after 24 hrs by disc diffusion method; assay type: functional
Micrococcus luteus [5] = assay: Antibacterial activity against Micrococcus luteus MTCC 106 assessed as zone of inhibition at 1 mg/disc after 24 hrs by disc diffusion method; assay type: functional
Klebsiella aerogenes [6] = assay: Antibacterial activity against Enterobacter aerogenes MTCC 111 assessed as zone of inhibition at 1 mg/disc after 24 hrs by disc diffusion method; assay type: functional
[7] = system: Staphylococcus epidermidis; assay: Antibacterial activity against Staphylococcus epidermidis MTCC 3615 assessed as zone of inhibition at 1 mg/disc after 24 hrs by disc diffusion method; assay type: functional
Staphylococcus aureus [8] = assay: Antibacterial activity against Staphylococcus aureus MTCC 96 assessed as zone of inhibition at 1 mg/disc after 24 hrs by disc diffusion method; assay type: functional
Staphylococcus aureus [9] = assay: Antibacterial activity against methicillin-resistant Staphylococcus aureus assessed as zone of inhibition at 1 mg/disc after 24 hrs by disc diffusion method; assay type: functional
Candida albicans [10] = assay: Antifungal activity against Candida albicans MTCC 227 assessed as zone of inhibition at 1 mg/disc after 48 hrs by disc diffusion method; assay type: functional
Malassezia pachydermatis [11] = assay: Antifungal activity against Malassezia pachydermatis assessed as zone of inhibition at 1 mg/disc after 48 hrs by disc diffusion method; assay type: functional
Salmonella typhimurium [12] = assay: Antibacterial activity against Salmonella typhimurium MTCC 1251 assessed as inhibition of visual growth after 24 hrs; assay type: functional, Salmonella enterica subsp. enterica serovar Typhimurium; conditions: Salmonella enterica, MTCC 1251, 24 h
Klebsiella pneumoniae [13] = assay: Antibacterial activity against Klebsiella pneumoniae MTCC 109 assessed as inhibition of visual growth after 24 hrs; assay type: functional; conditions: MTCC 109, 24 h
Proteus vulgaris [14] = assay: Antibacterial activity against Proteus vulgaris MTCC 1771 assessed as inhibition of visual growth after 24 hrs; assay type: functional; conditions: MTCC 1771, 24 h
Shigella flexneri [15] = assay: Antibacterial activity against Shigella flexneri MTCC 1457 assessed as inhibition of visual growth after 24 hrs; assay type: functional; conditions: MTCC 1457, 24 h
Micrococcus luteus [16] = assay: Antibacterial activity against Micrococcus luteus MTCC 106 assessed as inhibition of visual growth after 24 hrs; assay type: functional; conditions: MTCC 106, 24 h
Klebsiella aerogenes [17] = assay: Antibacterial activity against Enterobacter aerogenes MTCC 111 assessed as inhibition of visual growth after 24 hrs; assay type: functional; conditions: MTCC 111, 24 h
[18] = system: Staphylococcus epidermidis; assay: Antibacterial activity against Staphylococcus epidermidis MTCC 3615 assessed as inhibition of visual growth after 24 hrs; assay type: functional; conditions: MTCC 3615, 24 h
Staphylococcus aureus [19] = assay: Antibacterial activity against Staphylococcus aureus MTCC 96 assessed as inhibition of visual growth after 24 hrs; assay type: functional; conditions: MTCC 96, 24 h
Staphylococcus aureus [20] = assay: Antibacterial activity against methicillin-resistant Staphylococcus aureus assessed as inhibition of visual growth after 24 hrs; assay type: functional
Candida albicans [21] = assay: Antifungal activity against Candida albicans MTCC 227 assessed as inhibition of visual growth after 48 to 72 hrs; assay type: functional
Malassezia pachydermatis [22] = assay: Antifungal activity against Malassezia pachydermatis assessed as inhibition of visual growth after 48 to 72 hrs; assay type: functional

SMILES | inhibition zone (IZ) (Salmonella typhimurium [1]) [mm] | inhibition zone (IZ) (Klebsiella pneumoniae [2]) [mm] | inhibition zone (IZ) (Proteus vulgaris [3]) [mm] | inhibition zone (IZ) (Shigella flexneri [4]) [mm] | inhibition zone (IZ) (Micrococcus luteus [5]) [mm] | inhibition zone (IZ) (Klebsiella aerogenes [6]) [mm] | inhibition zone (IZ) [7] [mm] | inhibition zone (IZ) (Staphylococcus aureus [8]) [mm] | inhibition zone (IZ) (Staphylococcus aureus [9]) [mm] | inhibition zone (IZ) (Candida albicans [10]) [mm] | MIC (Salmonella typhimurium [12]) [mg/L] | MIC (Klebsiella pneumoniae [13]) [mg/L] | MIC (Proteus vulgaris [14]) [mg/L] | MIC (Shigella flexneri [15]) [mg/L] | MIC (Micrococcus luteus [16]) [mg/L] | MIC (Klebsiella aerogenes [17]) [mg/L] | MIC [18] [mg/L] | MIC (Staphylococcus aureus [19]) [mg/L] | MIC (Staphylococcus aureus [20]) [mg/L] | MIC (Candida albicans [21]) [mg/L] | also measured
C#CCN1C(=O)[C@]2(c3ccccc31)[C@H](c1cn(-c3ccccc3)nc1-c1ccccc1)[C@@](C#N)(C(=O)c1c[nH]c3ccccc13)C1CCCN12 (stereo partly specified) | 10 | 12 | 13 | 8 | 10 | 12 | 11 | 10 | 8 | 10 | 125 (≈ 191 µM) | 250 (≈ 383 µM) | 250 (≈ 383 µM) | 500 (≈ 766 µM) | 500 (≈ 766 µM) | 250 (≈ 383 µM) | 125 (≈ 191 µM) | 500 (≈ 766 µM) | 250 (≈ 383 µM) |  | inhibition zone (IZ) (Malassezia pachydermatis [11]): 9 mm
CCCCN1C(=O)[C@]2(c3ccccc31)[C@H](c1cn(-c3ccccc3)nc1-c1ccccc1)[C@@](C#N)(C(=O)c1c[nH]c3ccccc13)C1CSCN12 (stereo partly specified) | 9 | 9 |  |  | 10 | 9 | 10 | 8 |  |  | 250 (≈ 363 µM) | 500 (≈ 726 µM) | 500 (≈ 726 µM) | 500 (≈ 726 µM) | 250 (≈ 363 µM) | 500 (≈ 726 µM) | 250 (≈ 363 µM) | 250 (≈ 363 µM) | 500 (≈ 726 µM) | 125 (≈ 181 µM) | MIC (Malassezia pachydermatis [22]): 125 mg/L (≈ 181 µM)
N#C[C@]1(C(=O)c2c[nH]c3ccccc23)C2CCCN2[C@]2(C(=O)Nc3ccc([N+](=O)[O-])cc32)[C@@H]1c1cn(-c2ccccc2)nc1-c1ccccc1 (stereo partly specified) | 9 | 9 | 9 | 8 | 8 | 10 | 12 | 11 | 9 | 11 | 250 (≈ 379 µM) | 250 (≈ 379 µM) | 125 (≈ 189 µM) | 500 (≈ 758 µM) | 500 (≈ 758 µM) | 250 (≈ 379 µM) | 250 (≈ 379 µM) | 125 (≈ 189 µM) | 500 (≈ 758 µM) | 250 (≈ 379 µM) | MIC (Malassezia pachydermatis [22]): 500 mg/L (≈ 758 µM)
C=CCN1C(=O)[C@]2(c3ccccc31)[C@H](c1cn(-c3ccccc3)nc1-c1ccccc1)[C@@](C#N)(C(=O)c1c[nH]c3ccccc13)C1CSCN12 (stereo partly specified) | 10 | 9 | 10 | 9 | 11 | 9 | 11 | 12 | 9 | 12 | 250 (≈ 372 µM) | 500 (≈ 743 µM) | 500 (≈ 743 µM) | 500 (≈ 743 µM) | 500 (≈ 743 µM) | 250 (≈ 372 µM) | 125 (≈ 186 µM) | 250 (≈ 372 µM) | 500 (≈ 743 µM) | 250 (≈ 372 µM) | inhibition zone (IZ) (Malassezia pachydermatis [11]): 10 mm
CN1C(=O)[C@]2(c3ccccc31)[C@H](c1cn(-c3ccccc3)nc1-c1ccccc1)[C@@](C#N)(C(=O)c1c[nH]c3ccccc13)C1CCCN12 (stereo partly specified) | 13 | 11 | 12 | 9 | 8 | 10 | 12 | 9 | 10 |  | 500 (≈ 795 µM) | 500 (≈ 795 µM) | 250 (≈ 398 µM) | 250 (≈ 398 µM) | 500 (≈ 795 µM) | 250 (≈ 398 µM) | 250 (≈ 398 µM) | 250 (≈ 398 µM) | 125 (≈ 199 µM) |  | 
N#C[C@]1(C(=O)c2c[nH]c3ccccc23)C2CSCN2[C@]2(C(=O)Nc3ccccc32)[C@@H]1c1cn(-c2ccccc2)nc1-c1ccccc1 (stereo partly specified) | 11 | 10 | 10 | 8 | 11 | 13 | 13 | 14 | 8 | 9 | 500 (≈ 790 µM) | 500 (≈ 790 µM) | 500 (≈ 790 µM) | 500 (≈ 790 µM) | 500 (≈ 790 µM) | 500 (≈ 790 µM) | 500 (≈ 790 µM) | 500 (≈ 790 µM) | 500 (≈ 790 µM) | 1250 (≈ 1980 µM) | inhibition zone (IZ) (Malassezia pachydermatis [11]): 8 mm; MIC (Malassezia pachydermatis [22]): 250 mg/L (≈ 395 µM)
CC(=O)N1CCN(c2ccc(OCC3COC(Cn4ccnc4)(c4ccc(Cl)cc4Cl)O3)cc2)CC1 (stereo unspecified) [KETOCONAZOLE] | 18 | 20 | 30 | 30 | 26 | 22 | 14 | 14 | 30 | 28 | 30 (≈ 56.5 µM) | 6.25 (≈ 11.8 µM) |  | 6.25 (≈ 11.8 µM) | 6.25 (≈ 11.8 µM) | 25 (≈ 47 µM) | 6.25 (≈ 11.8 µM) | 6.25 (≈ 11.8 µM) | 6.25 (≈ 11.8 µM) | 25 (≈ 47 µM) | inhibition zone (IZ) (Malassezia pachydermatis [11]): 26 mm; MIC (Malassezia pachydermatis [22]): 25 mg/L (≈ 47 µM)
N#C[C@]1(C(=O)c2c[nH]c3ccccc23)C2CCCN2[C@]2(C(=O)Nc3ccccc32)[C@@H]1c1cn(-c2ccccc2)nc1-c1ccccc1 (stereo partly specified) | 8 | 9 | 12 | 10 | 11 | 12 | 13 | 12 | 10 | 10 | 250 (≈ 407 µM) | 31.2 (≈ 50.8 µM) | 125 (≈ 203 µM) | 31.2 (≈ 50.8 µM) | 31.2 (≈ 50.8 µM) | 62.5 (≈ 102 µM) | 62.5 (≈ 102 µM) | 31.2 (≈ 50.8 µM) | 31.2 (≈ 50.8 µM) | 125 (≈ 203 µM) | inhibition zone (IZ) (Malassezia pachydermatis [11]): 8 mm; MIC (Malassezia pachydermatis [22]): 500 mg/L (≈ 813 µM)
C=CCN1C(=O)[C@]2(c3ccccc31)[C@H](c1cn(-c3ccccc3)nc1-c1ccccc1)[C@@](C#N)(C(=O)c1c[nH]c3ccccc13)C1CCCN12 (stereo partly specified) | 10 | 9 | 10 |  |  |  |  |  |  |  | 500 (≈ 764 µM) | 500 (≈ 764 µM) | 250 (≈ 382 µM) | 250 (≈ 382 µM) | 250 (≈ 382 µM) | 250 (≈ 382 µM) | 125 (≈ 191 µM) | 125 (≈ 191 µM) | 250 (≈ 382 µM) | 250 (≈ 382 µM) | MIC (Malassezia pachydermatis [22]): 500 mg/L (≈ 764 µM)
